Patent US11931569B2, “Method for changing blood brain barrier permeability” (TEL HASHOMER MEDICAL RESEARCH, INFRASTRUCTURE AND SERVICES …, priority 2018, dated 2024)

Experiments:
CNS-1 glioma cell line = test: efficacy of Paclitaxel across the in vitro BBB model after PEF application (glioma confluency); assay type: cell-based; conditions: 200 nM Paclitaxel on apical side, 2 h with insert, followed 3 days
Procedure: Reference is made to FIG. 5A. To study the effect of PEFs application on BBB permeability for Paclitaxel (Taxol®), the in vitro BBB model 100 as shown FIG. 2A was modified by seeding a CNS-1 glioma cell line 254 on a bottom surface 103 of cell culture well 101 (40,000 cells per well), into which the BLEC co-culture system grown on membrane 204 of Transwell insert 200 was also grown. When the glioma cell line was at about 16±0.5% confluency, 200 nM Paclitaxel was added into ECM media 102 in the apical side of Transwell insert 200 and PEFs were applied at one of various settings, then incubated for 2 hours after which time the Transwell insert was removed. […] Glioma cell line 254 was then further incubated for three days and the level of confluency was measured at 2 hours, 1 day, 2 days, and 3 days following Paclitaxel administration.
The results as shown by way of example in FIG. 5B indicate that low pulse-count, low frequency, low EF strength PEFs induce sufficient BBB disruption to allow a therapeutic dose of Paclitaxel to traverse the in vitro BBB model and reach the glioma cell line.

[1] = test system: in vitro BBB model (CD34+-derived ECs co-cultured with bovine brain pericytes on Transwell inserts); assay type: in vitro ADME, human
Procedure: Reference is made to FIG. 2A that schematically illustrates an in vitro BBB model 100 grown in Transwell inserts 200 (3401-Costar, Corning, USA). The in vitro human BBB model was generated as follows: CD34^+-derived ECs 250 were seeded onto matrigel-coated (BD Biosciences, USA) apical side 206 of a Transwell insert membrane 204. Primary bovine brain pericytes 252 were seeded on the gelatin-coated basolateral side 208 of the same Transwell inserts 2-24 h before the seeding of the ECs. […]
PEFs were applied to Transwell inserts 200 using an electroporator power supply (BTX 830; Harvard Apparatus, Holliston, MA). […] Given the parameters of the electrode and based on a finite elements model of the described system, the EF generated between the electrodes by the applied voltage can be approximated as uniform across the ECs monolayer and can be calculated by dividing the Voltage by the electrodes distance. […]
50 μl of a solution containing 0.5 mg/ml NaF in PBS was added to the luminal (apical) side of each Transwell insert 200 one minute prior to PEFs application. […] A sample of medium 102 collected from under basolateral side 208 was collected and the samples' fluorescence was measured using TECAN pro200 plate reader (485/538 nm excitation/emission). […]

Row | SMILES | glioma cell growth / confluency (CNS-1 glioma cell line; 10 pulses, 74 V/cm, 1 Hz) | glioma cell growth / confluency (CNS-1 glioma cell line; 20 pulses, 30 V/cm, 1 Hz) | glioma cell growth / confluency (CNS-1 glioma cell line; 99 pulses, 30 V/cm, 1 Hz) | glioma cell growth / confluency (CNS-1 glioma cell line; control, no PEF application) | increase in permeability [1] [%]
1 | CC(=O)O[C@H]1C(=O)[C@@]2(C)[C@H]([C@H](OC(=O)c3ccccc3)[C@]3(O)C[C@H](OC(=O)[C@H](O)[C@@H](NC(=O)c4ccccc4)c4ccccc4)C(C)=C1C3(C)C)[C@]1(OC(C)=O)CO[C@@H]1C[C@@H]2O [Paclitaxel] | substantially disrupt its growth | glioma growth was not significantly retarded | level of retardation of glioma growth was equivalent to application of 10 pulses of PEFs at a field strength of 74 V/cm | reach full confluency after 3 days | –
2 | O=C([O-])c1ccccc1-c1c2ccc(=O)cc-2oc2cc([O-])ccc12.[Na+].[Na+] [NaF, sodium fluorescein] | – | – | – | – | 40±9
